{"source": "patent US7371422B2", "about": "“Cereal grain kernels fortified with iron and calcium” (The Procter & Gamble Company, priority 2003, dated 2008)", "origin": "cited, not measured here", "conditions": "in adult college students (Bovell-Benjamin et al. 1999); relative to ferrous sulfate"}
{"smiles": "NCC(=O)[O-].NCC(=O)[O-].[Fe+2]", "note": "[Ferrous bis-glycinate, ferrous bis-glycinate]", "values": [{"measurement": "absorbed ... times better than ferrous sulfate", "result": 4.7, "unit": "times"}]}
